This note sets out measurements from patent US4100346A, “Certain 7(o-amino-methyl- or methylaminomethylphenyl- or cyclohexadienyl- or thienylacetamide)-3[1-carboxymethyl-(or ethyl- or propyl-)-tetrazol-5-ylthiomethyl]-3-cephem-4-carboxylic acids” (Bristol-Myers Company, priority 1976, dated 1978).

Converted amounts (≈) assume the structure as drawn. “And” between values parts separate entries of the source, which are not always exact repeats. Identical values can stand only once.

For this experiment, the system named is Mycobacterium tuberculosis. The format is cell-based.

Regarding `Cc1nnc(SCC2=C(C(=O)O)N3C(=O)[C@@H](NC(=O)Cn4cnnn4)[C@H]3SC2)s1` [Cefazolin], the Minimum inhibitory concentration is 125 µg/mL and 250 µg/mL.
For `O=C(Cc1cccs1)N[C@@H]1C(=O)N2C(C(=O)[O-])=C(C[n+]3ccccc3)CS[C@H]12` [Cephaloridine] the value was 63 µg/mL (≈ 152 µM).
